Literature values, collected in patent US20190105268A1, “Viscoelastic Gel of Liraglutide Adapted for Once-Weekly or Once Bi-Weekly Administration” (Sun Pharma Advanced Research Company Limited, priority 2016, published 2019).

## liraglutide
DMSO
  solubility in DMSO: slightly soluble
ethanol
  solubility in ethanol: 1100 µg/mL
methanol
  solubility in methanol: up to 68 mg/ml
water
  solubility in water: insoluble to slightly soluble
